Data on two compounds can be found in patent publication US20140163044A1, “Compound Chemical Medicine Acting on Respiratory Disease, Preparation Process and Use Thereof” (HUNAN JIUDIAN PHARMACEUTICAL CO., LTD., priority 2011, published 2014).

Assay [1] concerns guinea pigs. Kind of assay: Antitussive effect in guinea pigs (induced cough 1 h or 4 h after oral administration). It is filed as in vivo. Particulars: for Effect on latent period of cough and cough times (in words): all dose groups; for Cough times before administration (in 5 min) / Latent period of cough / cough count: oral; for Cough times before administration (in 5 min): baseline before administration. An excerpt: The pharmacodynamic test for the pharmaceutical composition of the present invention: • 1. Studies on the Antitussive Effect
Medicines used in the test:
Test medicine: self-made tablets of the pharmaceutical composition comprising levodropropizine and carbocisteine by the inventors
Positive control medicine: levodropropizine tablets and carbocisteine tablets
150 guinea pigs (half male and half female) with a body mass of 300±25 g are taken and evenly divided into 15 groups, with 10 in each group. The administration group for the tablet of the present invention is divided into high dose group, medium dose group and low dose group, and the tablets are orally administered respectively; the administration groups for the positive control medicine levodropropizine is also divided into high dose group, medium dose group and low dose group. Each dose group is divided into two groups, respectively the group inducing cough at the first hour or the fourth hour after administration.

In assay [2] the test system is outpatients or inpatients with cough. Kind of assay: Trials for observing the clinical effect of the tablet in patients with cough. It is filed as in vivo. Particulars: 100 cases per group, oral, one tablet 3 times a day, 5-day course; for Efficacy: Ineffective: cough not improved or aggravated; for Efficacy: Improved: cough reduced 3 to 2 points or 2 to 1 points; for Efficacy: Effective: cough reduced to 1 point from 3 points; for Efficacy: Clinically controlled: symptoms disappeared completely. The protocol:
Trials for observing the clinical effect of the tablet of the present invention was conducted in the People's Hospital of Yongshun County, Hunan Province.
300 outpatients or inpatients with cough caused by acute upper respiratory tract infection, acute tracheitis and bronchitis, community-acquired pneumonia, and acute exacerbation of chronic bronchitis were randomly divided into a treatment group […], 100 patients for each group. Medicines were administered following the double-blind double-dummy positive medicine parallel control method. The tablets of the present invention, the control medicine levodropropizine tablets or carbocisteine tablets were taken by each group, respectively. Each group orally takes the tablets 3 times a day, one tablet (including analog tablet) each time, for a 5-day course of treatment. Other antitussive or expectorant medicine was stopped during the administration. The patients' conventional indicators such as blood pressure, pulse rate, body temperature, respiration, etc.; symptoms of cough; chest x-ray; blood and urine routine tests; liver and kidney functions; adverse reaction records and electrocardiogram were recorded.
Criteria for evaluating the efficacy are as follows: clinically controlled: symptoms disappeared completely; effective: symptoms of cough reduced to 1 point from 3 points; improved: symptoms of cough reduced to 2 points from 3 points or reduced to 1 points from 2 points; ineffective: symptoms of cough were not improved or aggravated.

Setting [3] is: 60 mg/kg, four hours after administration.
The mark [4] stands for this setting: 60 mg/kg, one hour after administration.
The mark [5] stands for this setting: 30 mg/kg, four hours after administration.
[6] abbreviates: 30 mg/kg, one hour after administration.
Where [7] appears, read: 120 mg/kg, four hours after administration.
Where [8] appears, read: 120 mg/kg, one hour after administration.

For the compound `N[C@@H](CSCC(=O)O)C(=O)O` [Carbocisteine tablet, carbocisteine], in assay [1], the “Effect on latent period of cough and cough times (in words)” value was “no obviously effect on prolonging the latent period of cough and reducing the cough times”. Moreover, the “Cough times before administration (in 5 min)” value in assay [1] (60 mg/kg group, 1 h group) is 25.24 ± 4.53 in 5 min. The “Cough times before administration (in 5 min)” value in assay [1] (60 mg/kg group, 4 h group) is on record as 26.04 ± 4.37 in 5 min. In assay [1] (setting [3]), the “Latent period of cough” value came out at 32.56 ± 5.17 s and the cough count worked out at 20 ± 4.24. Further, in assay [1] (setting [4]), the “Latent period of cough” value turned out to be 31.28 ± 6.42 s and the cough count is 21.1 ± 3.98. Moreover, in assay [2], the Effective rate amounted to 86%, the “Efficacy: Ineffective” value is 14 cases, the “Efficacy: Improved” value came to 40 cases and the “Efficacy: Effective” value turned out to be 18 cases. Also, the “Efficacy: Clinically controlled” value in assay [2] is on record as 28 cases.
With `OC[C@@H](O)CN1CCN(c2ccccc2)CC1` [Levodropropizine tablet, levodropropizine], the “Effect on latent period of cough and cough times (in words)” value in assay [1] is “effects of prolonging latent period of cough and reducing cough times”. In addition, the “Cough times before administration (in 5 min)” value in assay [1] (30 mg/kg group, 1 h group) is listed as 25.14 ± 4.37 in 5 min; in assay [1] (30 mg/kg group, 4 h group), 25.74 ± 3.71 in 5 min; in assay [1] (60 mg/kg group, 1 h group) it was 25.41 ± 5.26 in 5 min; in assay [1] (60 mg/kg group, 4 h group), 25.89 ± 4.06 in 5 min; in assay [1] (120 mg/kg group, 1 h group), 25.18 ± 5.31 in 5 min; in assay [1] (120 mg/kg group, 4 h group) it was 26.27 ± 3.98 in 5 min. In addition, the “Latent period of cough” value in assay [1] (setting [5]) came to 36.34 ± 4.68 s; in assay [1] (setting [6]) it was 38.16 ± 5.88 s; in assay [1] (setting [3]) it was 40.27 ± 5.29 s; in assay [1] (setting [4]), 42.38 ± 5.98 s; in assay [1] (setting [7]), 42.18 ± 3.18 s; in assay [1] (setting [8]), 49.57 ± 6.87 s. Moreover, the cough count came out at 19.4 ± 5.03 in assay [1] (setting [5]); 19.1 ± 4.15 in assay [1] (setting [6]); 17.2 ± 3.45 in assay [1] (setting [3]); 17.6 ± 3.97 in assay [1] (setting [4]); 15.1 ± 3.97 in assay [1] (setting [7]); 14.2 ± 4.25 in assay [1] (setting [8]). Further, the Effective rate in assay [2] turned out to be 92%. Moreover, the “Efficacy: Ineffective” value in assay [2] is recorded as 8 cases. Besides, the “Efficacy: Improved” value in assay [2] is given as 17 cases. Besides, the “Efficacy: Effective” value in assay [2] is given as 15 cases. Further, the “Efficacy: Clinically controlled” value in assay [2] is given as 60 cases.
